Reference: US20240166652A1, “MODULATORS OF THE INTEGRATED STRESS PATHWAY” (Calico Life Sciences LLC, priority 2017, published 2024)
pEC50: −log10 of the molar value.

Each compound was assayed on ATF4 luciferase reporter in HEK293T cells (assay: ATF4-Luc assay (ATF4 luciferase reporter, tunicamycin-treated HEK293T cells)). Conditions: Homo sapiens, HEK-293T; HEK293T cells carrying the ATF4 luciferase reporter, 1 μg/mL tunicamycin, 7 hours.
Format: cell-based, human
`COc1ncc(OCC(=O)NC23CCC(NC(=O)COc4ccc5c(c4)OC(F)(F)O5)(CC2)[C@@H](O)C3)cn1` [Compound 632, 2-[(2,2-difluoro-2H-1,3-benzodioxol-5-yl)oxy]-N-[(2S)-2-hydroxy-4-{2-[(2-methoxypyrimidin-5-yl)oxy]acetamido}bicyclo[2.2.2]octan-1-yl]acetamide] gave a pEC50 of 7.30 to 8.00.
With `CN(CCO)C1CC2(NC(=O)COc3ccc(Cl)c(F)c3)CCC1(NC(=O)COc1ccc(Cl)c(F)c1)CC2` (centres unmarked) [Compound 711, N,N′-{2-[(2-hydroxyethyl)(methyl)amino]bicyclo[2.2.2]octane-1,4-diyl}bis[2-(4-chloro-3-fluorophenoxy)acetamide]] the pEC50 was greater than 8.00.
`O=C(COc1cccnc1)NC12CCC(NC(=O)COc3ccc(Cl)c(F)c3)(C1)C2` [Compound 403, 2-(4-chloro-3-fluorophenoxy)-N-(4-{2-[(pyridin-3-yl)oxy]acetamido}bicyclo[2.1.1]hexan-1-yl)acetamide] gave a pEC50 of 5.70 to 6.30.
For `Cc1cccc(OCC(=O)NC23CCC(NC(=O)COc4ccc(Cl)c(F)c4)(CC2)[C@@H](O)C3)c1` [Compound 467, 2-(4-chloro-3-fluorophenoxy)-N-{(2S)-2-hydroxy-4-[2-(3-methylphenoxy)acetamido]bicyclo[2.2.2]octan-1-yl}acetamide], the pEC50 was greater than 8.00.
`CC(C)(C)c1ccc(OCC(=O)NC23CCC(NC(=O)COc4ccc(Cl)c(F)c4)(CC2)C[C@@H]3O)cc1` [Compound 506, 2-(4-tert-butylphenoxy)-N-{(2S)-4-[2-(4-chloro-3-fluorophenoxy)acetamido]-2-hydroxybicyclo[2.2.2]octan-1-yl}acetamide] gave a pEC50 of 6.30 to 6.60.
`O=C(COc1ccc(Cl)c(F)c1)NC12CC(NC(=O)COc3ccc(Cl)c(F)c3)(C1)C2` [Compound 186, N,N′-(bicyclo[1.1.1]pentane-1,3-diyl)bis[2-(4-chloro-3-fluorophenoxy)acetamide]] showed a pEC50 greater than 8.00.
`O=C1COc2c(cc(Cl)cc2OCC(=O)NC23CCC(NC(=O)COc4ccc(Cl)c(F)c4)(CC2)[C@@H](O)C3)N1` [Compound 754, 2-(4-chloro-3-fluorophenoxy)-N-[(2S)-4-{2-[(6-chloro-3-oxo-3,4-dihydro-2H-1,4-benzoxazin-8-yl)oxy]acetamido}-2-hydroxybicyclo[2.2.2]octan-1-yl]acetamide] showed a pEC50 of less than 5.70.
`O=C(CCCOc1cccc(Cl)c1)NC12CC(NC(=O)COc3ccc(Cl)c(F)c3)(C1)C2` [Compound 148, N-{3-[2-(4-chloro-3-fluorophenoxy)acetamido]bicyclo[1.1.1]pentan-1-yl}-4-(3-chlorophenoxy)butanamide] showed a pEC50 of 6.60 to 7.30.
`O=C(COc1ccc(Cl)c(F)c1)NC12CCC(NC(=O)COc3cccnn3)(CC1)[C@@H](O)C2` [Compound 806, 2-(4-chloro-3-fluorophenoxy)-N-[(3S)-3-hydroxy-4-{2-[(pyridazin-3-yl)oxy]acetamido}bicyclo[2.2.2]octan-1-yl]acetamide] gave a pEC50 of 5.70 to 6.30.
Compound `O=C(COc1ccc(Cl)c(F)c1)NC12CCC(N[C@H](CCOc3ccc(Cl)cc3)C(=O)O)(CC1)C[C@@H]2O` (single isomer, unassigned) [Compound 693] has a pEC50 of 5.70 to 6.30.
Compound `Cc1ccc(COCC(=O)NC23CC(NC(=O)COc4ccc(Cl)c(F)c4)(C2)C3)cc1` [Compound 144, 2-(4-chloro-3-fluorophenoxy)-N-(3-{2-[(4-methylphenyl)methoxy]acetamido}-bicyclo[1.1.1]pentan-1-yl)acetamide] has a pEC50 of 6.30 to 6.60.
With `O=C(COc1ccc(Cl)c(F)c1)NC12CC(NC(=O)C3(c4ccc(Cl)cc4)CC3)(C1)C2` [Compound 668, N-{3-[2-(4-chloro-3-fluorophenoxy)acetamido]bicyclo[1.1.1]pentan-1-yl}-1-(4-chlorophenyl)cyclopropane-1-carboxamide] the pEC50 was less than 5.70.
Work on `O=C(COc1ccc(Cl)c(F)c1)NC12CC(NC(=O)COc3cnc(F)c(Cl)c3)(C1)C2` [Compound 240, 2-(4-chloro-3-fluorophenoxy)-N-(3-{2-[(5-chloro-6-fluoropyridin-3-yl)oxy]acetamido}bicyclo[1.1.1]pentan-1-yl)acetamide] yielded a pEC50 greater than 8.00.
`O=C(COc1cccc(C(F)(F)F)n1)NC12CCC(NC(=O)COc3ccc(Cl)cc3)(CC1)[C@@H](O)C2` [Compound 825, 2-(4-chlorophenoxy)-N-[(2S)-2-hydroxy-4-(2-{[6-(trifluoromethyl)pyridin-2-yl]oxy}acetamido)bicyclo[2.2.2]octan-1-yl]acetamide] gave a pEC50 of 6.60 to 7.30.
In the case of `O=C(COc1ccc(Cl)c(F)c1)NC12CC(NC(=O)COc3ccc(Cl)c(I)c3)(C1)C2` [Compound 260, 2-(4-chloro-3-fluorophenoxy)-N-{3-[2-(4-chloro-3-iodophenoxy)acetamido]-bicyclo[1.1.1]pentan-1-yl}acetamide], the pEC50 was greater than 8.00.
Work on `O=C(COc1ccc(F)c(F)c1)NC12CCC(NC(=O)COc3ccc(C(F)(F)F)nc3)(CC1)C(O)C2` (centres unmarked) [Compound 359, 2-(3,4-difluorophenoxy)-N-[3-hydroxy-4-(2-{[6-(trifluoromethyl)pyridin-3-yl]oxy}acetamido)bicyclo[2.2.2]octan-1-yl]acetamide] yielded a pEC50 of 7.30 to 8.00.
`Cc1cc(OCC(=O)NC23CC(NC(=O)COc4ccc(Cl)c(F)c4)(C2)C3)cnc1C#N` [Compound 242, 2-(4-chloro-3-fluorophenoxy)-N-(3-{2-[(6-cyano-5-methylpyridin-3-yl)oxy]acetamido}bicyclo[1.1.1]pentan-1-yl)acetamide] was tested, and the pEC50 was 7.30 to 8.00.
In the case of `O=C(COc1ccc(Cl)c(F)c1)NC12CC(NS(=O)(=O)Cc3ccccc3F)(C1)C2` [Compound 481, 2-(4-chloro-3-fluorophenoxy)-N-(3-{[(2-fluorophenyl)methanesulfonyl]amino}bicyclo[1.1.1]pentan-1-yl)acetamide], the pEC50 was less than 5.70.
`O=C(COc1ccc(Cl)c(F)c1)NC12CCC(N[C@@H](CCOc3ccc(Cl)cc3)C(=O)O)(CC1)C[C@@H]2O` (single isomer, unassigned) [Compound 694] was tested, and the pEC50 was 6.30 to 6.60.
`O=C(COc1ccc(Cl)c(F)c1)NC12CCC(NC(=O)COc3ccc(Cl)c(F)c3)(CC1)C(CO)C2` (centres unmarked) [Compound 568, N,N′-[2-(hydroxymethyl)bicyclo[2.2.2]octane-1,4-diyl]bis[2-(4-chloro-3-fluorophenoxy)acetamide]] was tested, and the pEC50 was greater than 8.00.
In the case of `O=C(COc1ccc(F)c(OC(F)F)c1)NC12CCC(NC(=O)COc3ccc(Cl)c(F)c3)(CC1)[C@@H](O)C2` [Compound 808, 2-(4-chloro-3-fluorophenoxy)-N-[(2S)-4-{2-[3-(difluoromethoxy)-4-fluorophenoxy]acetamido}-2-hydroxybicyclo[2.2.2]octan-1-yl]acetamide], the pEC50 was greater than 8.00.
With `O=C(COc1ccc(Cl)c(Cl)c1)NC12CC(NC(=O)COc3ccc(Cl)cc3F)(C1)C2` [Compound 122, 2-(4-chloro-2-fluorophenoxy)-N-{3-[2-(3,4-dichlorophenoxy)acetamido]-bicyclo[1.1.1]pentan-1-yl}acetamide] the pEC50 was greater than 8.00.
For `O=C(COc1ccc(Cl)c(F)c1)NC12CCC(NC(=O)COc3ccc(F)c(OC(F)F)c3)(CC1)[C@@H](O)C2` [Compound 795, 2-(4-chloro-3-fluorophenoxy)-N-[(3S)-4-{2-[3-(difluoromethoxy)-4-fluorophenoxy]acetamido}-3-hydroxybicyclo[2.2.2]octan-1-yl]acetamide], the pEC50 was greater than 8.00.
Work on `COc1cc(Cl)ccc1OCC(=O)NC12CC(NC(=O)COc3ccc(Cl)c(F)c3)(C1)C2` [Compound 412, 2-(4-chloro-3-fluorophenoxy)-N-{3-[2-(4-chloro-2-methoxyphenoxy)acetamido]bicyclo[1.1.1]pentan-1-yl}acetamide] yielded a pEC50 of 6.60 to 7.30.
`Cc1cc(OCC(=O)NC23CC(NC(=O)COc4ccc(Cl)c(F)c4)(C2)C3)ncc1Cl` [Compound 216, 2-(4-chloro-3-fluorophenoxy)-N-(3-{2-[(5-chloro-4-methylpyridin-2-yl)oxy]acetamido}bicyclo[1.1.1]pentan-1-yl)acetamide] gave a pEC50 of 6.60 to 7.30.
Compound `O=C(COc1ccc(Cl)c(F)c1)NC12CCC(NCCCOc3ccc(Cl)c(F)c3)(CC1)[C@@H](O)C2` [Compound 703, 2-(4-chloro-3-fluorophenoxy)-N-[(3S)-4-{[3-(4-chloro-3-fluorophenoxy)propyl]amino}-3-hydroxybicyclo[2.2.2]octan-1-yl]acetamide] has a pEC50 greater than 8.00.
In the case of `O=C(COc1cc(F)c2cn[nH]c2c1)NC12CCC(NC(=O)COc3ccc(F)cc3)(CC1)[C@@H](O)C2` [Compound 721], the pEC50 was greater than 8.00.
In the case of `O=C(COc1ccc(C(F)(F)F)nc1)NC12CCC(NC(=O)COc3ccc(Cl)c(F)c3)(CC1)CC2` [Compound 101, 2-(4-chloro-3-fluorophenoxy)-N-[4-(2-{[6-(trifluoromethyl)pyridin-3-yl]oxy}acetamido)bicyclo[2.2.2]octan-1-yl]acetamide], the pEC50 was 7.30 to 8.00.
`O=C(COc1ccc(Cl)c(C(=O)O)c1)NC12CCC(NC(=O)COc3ccc(Cl)c(C(=O)O)c3)(CC1)[C@@H](O)C2` [Compound 593, 3,3′-{[(2S)-2-hydroxybicyclo[2.2.2]octane-1,4-diyl]bis[azanediyl(2-oxoethane-2,1-diyl)oxy]}bis(6-chlorobenzoic acid)] gave a pEC50 of less than 5.70.
In the case of `O=C(COc1ccc(Cl)c(F)c1)NC12CC(NS(=O)(=O)Cc3ccc(F)c(F)c3)(C1)C2` [Compound 483, 2-(4-chloro-3-fluorophenoxy)-N-(3-{[(3,4-difluorophenyl)methanesulfonyl]amino}bicyclo[1.1.1]pentan-1-yl)acetamide], the pEC50 was less than 5.70.
Compound `CN1C(=O)COc2c(OCC(=O)NC34CCC(NC(=O)COc5ccc(Cl)c(F)c5)(CC3)[C@@H](O)C4)cc(Cl)cc21` [Compound 752, 2-(4-chloro-3-fluorophenoxy)-N-[(2S)-4-{2-[(6-chloro-4-methyl-3-oxo-3,4-dihydro-2H-1,4-benzoxazin-8-yl)oxy]acetamido}-2-hydroxybicyclo[2.2.2]octan-1-yl]acetamide] has a pEC50 of 5.70 to 6.30.
Work on `O=C(COc1ccc(F)c(F)c1)NC12CCC(NC(=O)COc3ccc(Cl)c(F)c3)(CC1)C(O)C2` (centres unmarked) [Compound 329, 2-(4-chloro-3-fluorophenoxy)-N-{4-[2-(3,4-difluorophenoxy)acetamido]-2-hydroxybicyclo[2.2.2]octan-1-yl}acetamide] yielded a pEC50 greater than 8.00.
